As a reminder, the mortality is the share of the test organisms that died.

In data set [1] the test system is Bemisia tabaci SUD-S strain (susceptible laboratory strain). As to the kind of experiment: Leaf-disc dip bioassay on adult whiteflies, susceptible reference strain (Example VII). The class given is in vivo. The following applies: for mortality at 40 ppm / mortality at 100 ppm / mortality at 500 ppm / mortality at 32 ppm / mortality at 512 ppm: Bemisia tabaci, read-out: Mortality, S Strain (SUD-S); for mortality at 40 ppm / mortality at 100 ppm / mortality at 500 ppm: 72 h; for LC50, S strain (SUD-S): in vivo; for mortality at 32 ppm / mortality at 512 ppm: 48 h. On the procedure: (§1) The activity of commercial, neonicotinoid insecticides was also assessed and served as the basis for comparisons of relative efficacy on this insecticide-resistant whitefly strain.
(§2) The common name associated with the Q-biotype of B. tabaci is the sweetpotato whitefly. […] The SUD-S strain of B. tabaci was the reference strain used in these tests and is a laboratory strain that is fully susceptible to all insecticide groups.
(§3) Technical samples of Compounds 6 and 7 were initially dissolved in 90% acetone in distilled water (containing 0.01% Agral) to obtain 5000 ppm stock solutions. […] Commercial formulations of imidacloprid (Confidor, 200SL), thiamethoxam (Actara, 25WG) and acetamiprid (Mospilan, 20SP) were diluted using distilled water containing 0.01% Agral.
(§4) Adult B. tabaci were removed from rearing cages using a motorized aspirator and, after brief narcosis, 20-30 healthy female whiteflies were placed onto each treated leaf disc. Each unit was sealed with a close-fitting, ventilated lid. Once adults had recovered from narcosis, dishes were inverted so that the leaf disc was facing abaxial side down allowing the adult whiteflies to orient normally. All bioassays consisted of three replicates per concentration (including controls). Mortality was assessed at 48 hours after initiation of the test for the commercial standards and at 72 hours for Compounds 6 and 7.
(§5) Compounds 6, 7 and the commercial neonicotinoid insecticides imidacloprid, thiamethoxam and acetamiprid were tested in discriminating concentration bioassays against both whitefly strains. More extensive concentration-response bioassays against both whitefly strains were conducted for Compounds 6, 7 and imidacloprid. […] Resistance ratios were calculated using the following equation: […]

Data set [2] relates to insecticide-resistant Q-biotype Bemisia tabaci strain CHLORAKA
As to the kind of experiment: Leaf-disc dip bioassay on adult whiteflies, neonicotinoid-resistant Q-biotype strain (Example VII). Conditions: for mortality at 40 ppm / mortality at 100 ppm / mortality at 500 ppm / mortality at 32 ppm / mortality at 512 ppm: Bemisia tabaci, read-out: Mortality, R Strain (CHLORAKA); for mortality at 40 ppm / mortality at 100 ppm / mortality at 500 ppm: 72 h; for Resistance Ratio: CHLORAKA (R) vs SUD-S (S) LC50; for LC50, R strain (CHLORAKA): in vivo; for mortality at 32 ppm / mortality at 512 ppm: 48 h. The class given is in vivo. How it is done:
as §1, §2, §3, §4, §5

The test system of data set [3] is Bemisia tabaci SUD-S strain (susceptible laboratory strain). The data set can be described thus: Leaf-disc dip bioassay on adult whiteflies, susceptible reference strain (Example VIII). Type of data set: in vivo. How it is done: (§6) The insecticidal activity of Compound 7 on adults from an insecticide-resistant, B-biotype Bemisia tabaci strain was assessed. The activity of commercial, neonicotinoid insecticides was also assessed and served as the basis for comparisons of relative efficacy on this insecticide-resistant whitefly strain.
(§7) The common name associated with the B-biotype of B. tabaci is the silverleaf whitefly. The strain used in these tests, “GUA-MIX”, was collected from a variety of crops situated in the Zacapa Valley of Guatemala in January of 2004. […] The SUD-S strain of B. tabaci was the reference strain used in these tests and is a laboratory strain that is fully susceptible to all insecticide groups.
(§8) A technical sample of Compound 7 was initially dissolved in 90% acetone in distilled water (containing 0.01% Agral) to obtain a 5000 ppm stock solution. […] Commercial formulations of imidacloprid (Confidor, 200SL), thiamethoxam (Actara, 25WG) and acetamiprid (Mospilan, 20SP) were diluted using distilled water containing 0.01% Agral.
as §4, with “Compound” for “Compounds 6 and”
(§9) Compound 7 and the commercial neonicotinoid insecticides imidacloprid, thiamethoxam and acetamiprid were tested in discriminating concentration bioassays against both whitefly strains. More extensive concentration-response bioassays against both whitefly strains were conducted for Compound 7 and imidacloprid. […] Resistance ratios were calculated using the following equation: […]

Data set [4] relates to insecticide-resistant B-biotype Bemisia tabaci strain GUA-MIX. As to the kind of experiment: Leaf-disc dip bioassay on adult whiteflies, neonicotinoid-resistant B-biotype strain (Example VIII). Type of data set: in vivo. How it is done: as §6, §7, §8
as §4, with “Compound” for “Compounds 6 and”
as §9

In data set [5] the test system is field-collected populations of the whitefly, Bemisia tabaci. The following applies: field-collected B. tabaci strains, late 1990s onward; literature; cited from earlier work.
Data set [6] deals with Bemisia tabaci SUD-S strain (susceptible laboratory strain). The data set can be described thus: Leaf-disc dip bioassay on adult whiteflies, susceptible reference strain (Example IX). The class given is in vivo.
Description: as §2
as §4, with “2, 4,” for “6”, “5.” for “7.”
(§10) Resistance ratios were calculated using the following equation: […]

The test system of data set [7] is insecticide-resistant Q-biotype Bemisia tabaci strain CHLORAKA
The data set can be described thus: Leaf-disc dip bioassay on adult whiteflies, insecticide-resistant Q-biotype strain (Example IX). Type of data set: in vivo. The following applies: for Resistance Ratio: CHLORAKA (R) vs SUD-S (S) LC50.
Description: as §2
as §4, with “2, 4,” for “6”, “5.” for “7.”
as §10

The test system of data set [8] is Myzus persicae US1L strain (susceptible). From the text: (§11) Activity was compared to that of commercial insecticides representing major insecticide classes.
(§12) The common name associated with Myzus persicae is the green peach aphid. […] The “US1L” strain of M. persicae was the reference strain used in these tests.
(§13) Subsequent dilutions used a 10% solution of acetone in distilled water (containing 0.01% Agral®) as the diluent.
(§14) For M. persicae bioassays, discs cut from fully expanded leaves of Chinese cabbage (Brassica rapa ssp. Pekinensis cv. Won Bok) plants were dipped into serial dilutions of insecticide, allowed to air-dry, and placed onto agar-water (1%) beds in plastic Petri-dishes. Leaf discs immersed in the diluent only were used for controls. Adults were removed from rearing boxes and, using a fine camel-hair paint brush, 10 healthy, apterous females were placed onto each treated leaf disc and each unit sealed with a close-fitting, ventilated lid. All bioassays consisted of three replicates per dose (including controls). Mortality was scored at 24, 48 and 72 h following initial exposure for all compounds and the 72 h data were used for all analyses.
(§15) Mortality data were subjected to probit analysis to derive LC50 and LC90 estimates. Resistance ratios were calculated using the following equation: […]

Data set [9] concerns insecticide-resistant Myzus persicae strain 4013A. The data set can be described thus: Leaf-disc dip bioassay on adult aphids, insecticide-resistant strain (Example IX). The following applies: for Resistance Ratio: 4013A (R) vs US1L (S) LC50.
Description: as §11, §12, §13, §14, §15

Where [10] appears, read: Bemisia tabaci, 72 h, read-out: Mortality, S Strain (SUD-S).
Setting [11] is: Bemisia tabaci, 72 h, read-out: Mortality, R Strain (GUA-MIX).
The mark [12] stands for this setting: Bemisia tabaci, 48 h, read-out: Mortality, S Strain (SUD-S).
Setting [13] is: Bemisia tabaci, 48 h, read-out: Mortality, R Strain (GUA-MIX).
The mark [14] stands for this setting: probit analysis, mortality at 72 hours for Compounds 2, 4, 5, 48 hours for commercial standards.
The mark [15] stands for this setting: probit analysis, 72 h mortality data.

Where two headings read alike, the source gives them in different places. Marks after values point to notes of the source that are not given here. Bounds are passed on as bounds.

`C[C@H](c1ccc(Cl)nc1)S(C)(=O)=NC#N` (single isomer, unassigned) [Compound 6]: in data set [1], the mortality at 40 ppm was 99%; the mortality at 100 ppm is 100%; the mortality at 500 ppm was determined as 100%; the “LC50, S strain (SUD-S)” value turned out to be 7.4 ppm. Besides, in data set [2], the mortality at 40 ppm is 39%, the mortality at 100 ppm is 79%, the mortality at 500 ppm was 96% and the “Resistance Ratio” value amounted to 6.1. In addition, the “LC50, R strain (CHLORAKA)” value in data set [2] is on record as 45 ppm.

With `C[C@@H](c1ccc(Cl)nc1)S(C)(=O)=NC#N` (single isomer, unassigned) [Compound 7], the mortality at 40 ppm was 98% in data set [1], 37% in data set [2], 84% in data set [3] (setting [10]) and 70% in data set [4] (setting [11]). In addition, the mortality at 100 ppm in data set [1] was found to be 97%; in data set [2] it was 79%; in data set [3] (setting [10]), 95%; in data set [4] (setting [11]), 79%. Also, the figures for the mortality at 500 ppm in data set [1] and in data set [2] were 100% and 97%, respectively. The “LC50, S strain (SUD-S)” value is 9.0 ppm in data set [1] and 9.3 ppm in [3] (in vivo). In addition, the “Resistance Ratio” value in data set [2] came out at 5.9; in data set [4] (GUA-MIX (R) vs SUD-S (S) LC50) it was 3.3. Besides, the “LC50, R strain (CHLORAKA)” value in data set [2] is given as 53 ppm. Also, in [4] (in vivo), the “LC50, R strain (GUA-MIX)” value amounted to 30.3 ppm.

For `C/C(=N\C#N)N(C)Cc1ccc(Cl)nc1` [Acetamiprid, acetamiprid], the mortality at 32 ppm came to 52% in data set [1], 2% in data set [2], 65% in data set [3] (setting [12]) and 1% in [4] (setting [13]). The mortality at 512 ppm was 79% in data set [1], 30% in data set [2], 98% in [3] (setting [12]) and 63% in data set [4] (setting [13]). Besides, the “resistance of more recently-collected whitefly strains” value in data set [5] is listed as “comparable levels of resistance”.

For `CC(c1ccc(C(F)(F)F)nc1)S(C)(=O)=NC#N` (centres unmarked) [Compound 2, [1-(6-Trifluoromethylpyridin-3-yl)ethyl](methyl)-oxido-λ^4-sulfanylidenecyanamide], in [6] (setting [14]), the “LC50, S strain (SUD-S)” value turned out to be 1.8 ppm. For the same molecule, the “Resistance Ratio” value is recorded as 2.8 in [7] and 0.4 in [9]. For the same molecule, in [7] (setting [14]), the “LC50, R strain (CHLORAKA)” value was 5.0 ppm. Also, the “LC50, S strain (US1L)” value in [8] (setting [15]) came out at 4.13 ppm. In addition, in data set [9] (setting [15]), the “LC50, R strain (4013A)” value worked out at 1.52 ppm.

In the case of `CS(=O)(Cc1ccc(Cl)nc1)=NC#N` (centres unmarked) [Compound 4, [(6-Chloropyridin-3-yl)methyl](methyl)oxido-λ^4-sulfanylidenecyanamide], the “LC50, S strain (SUD-S)” value in [6] (in vivo) is given as 3.1 ppm. Further, the “Resistance Ratio” value was found to be 5.2 in data set [7] and 0.7 in [9]. In data set [7] (in vivo), the “LC50, R strain (CHLORAKA)” value came to 16.5 ppm. For the same molecule, in data set [8] (in vivo), the “LC50, S strain (US1L)” value is reported as 146 ppm. Moreover, the “LC50, R strain (4013A)” value in [9] (setting [15]) turned out to be 103 ppm.

As for `CC(c1ccc(Cl)nc1)S(C)(=O)=NC#N` (centres unmarked) [Compound 5, [1-(6-Chloropyridin-3-yl)ethyl](methyl)oxido-λ^4-sulfanylidenecyanamide], in data set [6] (in vivo), the “LC50, S strain (SUD-S)” value came to 4.5 ppm. Moreover, the “Resistance Ratio” value in [7] turned out to be 2.9; in data set [9], 0.2. Moreover, the “LC50, R strain (CHLORAKA)” value in [7] (in vivo) came out at 13.2 ppm. In addition, in data set [8] (in vivo), the “LC50, S strain (US1L)” value was 62.3 ppm. For the same molecule, the “LC50, R strain (4013A)” value in [9] (setting [15]) is 12.5 ppm.

Consider `CC1(C)[C@H](C(=O)O[C@H](C#N)c2cccc(Oc3ccccc3)c2)[C@@H]1C=C(Br)Br` [Deltamethrin, deltamethrin], for which, in [6] (setting [14]), the “LC50, S strain (SUD-S)” value was 0.4 ppm. For the same molecule, the “Resistance Ratio” value is 815 ^ in data set [7] and 60 in data set [9]. Further, the “LC50, R strain (CHLORAKA)” value in data set [7] (setting [14]) was 325 ppm. Besides, the “LC50, S strain (US1L)” value in data set [8] (setting [15]) stood at 1.5 ppm. For the same molecule, in [9] (in vivo), the “LC50, R strain (4013A)” value is given as 92 ppm.

On to `Cc1nc(N(C)C)nc(OC(=O)N(C)C)c1C` [Pirimicarb, pirimicarb], for which the “LC50, S strain (US1L)” value in data set [8] (setting [15]) turned out to be 14.8 ppm. Moreover, the “Resistance Ratio” value in data set [9] is reported as >60**^. In addition, in [9] (setting [15]), the “LC50, R strain (4013A)” value is on record as greater than 1000 ppm.

For `CCCSP(=O)(OCC)Oc1ccc(Br)cc1Cl` (centres unmarked) [Profenofos, profenofos], the “LC50, S strain (SUD-S)” value in [6] (setting [14]) is listed as 2.0 ppm. For the same molecule, in data set [7], the “Resistance Ratio” value is 189 ^. Also, the “LC50, R strain (CHLORAKA)” value in [7] (setting [14]) is given as 374 ppm.

Take `CN1COCN(Cc2cnc(Cl)s2)/C1=N\[N+](=O)[O-]` [Thiamethoxam, thiamethoxam]: in [1], the mortality at 32 ppm is 85% and the mortality at 512 ppm worked out at 94%. Moreover, in data set [2], the mortality at 32 ppm is 0% and the mortality at 512 ppm was determined as 15%. Also, in data set [3] (setting [12]), the mortality at 32 ppm was determined as 57% and the mortality at 128 ppm is 73%. In [4] (setting [13]), the mortality at 25 ppm turned out to be 10%, the mortality at 250 ppm was 51% and the mortality at 2500 ppm was 87%. Moreover, the “resistance of more recently-collected whitefly strains” value in data set [5] was “comparable levels of resistance”.

The record behind these values is patent US8912222B2, “Method to control insects resistant to common insecticides” (priority 2006, dated 2014).
